The source of these data is patent publication US11447469B2, “Hetero ring-fused phenyl compounds for inhibiting TNIK and medical uses thereof” (Korea Research Institute of Chemical Technology, priority 2018, dated 2022).

In assay [1] the target is T1, TNIK (Homo sapiens (Human), UniProt Q9UKE5). As to the kind of experiment: In vitro TNIK kinase assay using qPCR (competition binding with liganded affinity beads). To be noted: compound at 1 μM; kinase in eluate measured by qPCR. The procedure: 1. Efficacy of Inhibiting TNIK Activity, In Vitro TNIK Kinase Assay Using qPCR
For most assays, kinase-tagged T7 phage strains were grown in parallel in 24-well blocks in an E. coli host derived from the BL21 strain. E. coli were grown to log-phase and infected with T7 phage from a frozen stock (multiplicity of infection=0.4) and incubated with shaking at 32° C. until (90-150 minutes). The lysates were centrifuged (6,000×g) and filtered (0.2 μm) to remove cell debris. The remaining kinases were produced in HEK-293 cells and subsequently tagged with DNA for qPCR detection. Streptavidin-coated magnetic beads were treated with biotinylated small molecule ligands for 30 minutes at room temperature to generate affinity resins for kinase assays. The liganded beads were blocked with excess biotin and washed with blocking buffer (SeaBlock (Pierce), 1% BSA, 0.05% Tween 20, 1 mM DTT) to remove unbound ligand and to reduce non-specific phage binding. Binding reactions were assembled by combining kinases, liganded affinity beads, and test compounds in 1× binding buffer (20% SeaBlock, 0.17×PBS, 0.05% Tween 20, 6 mM DTT). Test compounds were prepared as 40× stocks in 100% DMSO and directly diluted into the assay. All reactions were performed in polypropylene 384-well plates in a final volume of 0.04 ml.
The assay plates were incubated at room temperature with shaking for 1 hour and the affinity beads were washed with wash buffer (1×PBS, 0.05% Tween 20). The beads were then re-suspended in elution buffer (1×PBS, 0.05% Tween 20, 0.5 μM non-biotinylated affinity ligand) and incubated at room temperature with shaking for 30 minutes. The kinase concentration in the eluates was measured by qPCR.

The subject of a further assay is SW620 cells. Nature of the assay: Cell viability assay (CCK-8) using SW620 cell. Format: cell-based. Particulars: Homo sapiens, SW-620, 48 h exposure. The procedure:
(§1) 3. Efficacy of Inhibiting Cancer Cells Using Colon Cancer Cell Lines
(§2) The human colon cancer cell line SW480 (Catalog No. CCL-228) and SW620 (Catalog No. CCL-227) were obtained from the American Type Culture Collection (ATCC), and maintained in DMEM (Thermo Fisher Scientific Inc., Waltham, Mass., USA) supplemented with 10% fetal bovine serum (FBS) (Thermo Fisher Scientific Inc., Waltham, Mass.), 100 U/ml penicillin, and 100 µg/ml streptomycin (Gibco, Gaithersburg, Md.). Cells were grown at 37° C. in 5% CO2 for confluence.
(§3) Cell viability was measured using the Cell Counting Kit-8 (Dojindo Molecular Technologies). SW480 and SW620 cells (2.5×10^4 cells/well) were seeded in 96-well plates and incubated for 24 h. After incubation, the cells were exposed to serially diluted compounds (0.1, 0.3, 1, 3, 10 and 30 µM) in 100 μl phenol free DMEM medium containing 0.1% FBS. After 48 h, CCK-8 reagent was added at 10 μl per well and incubated for 1 h at 37° C. Optical density was measured at 450 nm using a microplate reader (Bio-Rad Laboratories, Hercules, Calif.). The IC50 values were calculated using GraphPad Prism software (GraphPad Software Inc., La Jolla, Calif., USA) to determine kit performance. Experiments were performed in triplicate.

Another assay has as its system SW480 cells. As to the kind of experiment: Cell viability assay (CCK-8) using SW480 cell. To be noted: Homo sapiens, 48 h exposure. Format: cell-based. Here is the method: as §1, §2, §3
Assay [2] addresses T1, TNIK. Nature of the assay: In vitro TNIK kinase assay using ADP-Glo Kinase Assay system. Format: biochemical. Particulars: 100 μM ATP, MBP substrate; for IC50: 37° C. 30 min; for inhibition at 1 µM: compound at 1 μM. The procedure: 2. Efficacy of Inhibiting TNIK Activity, In Vitro TNIK Kinase Assay Using ADP-Glo™ Kinase Assay System
The inhibitory properties of compounds were evaluated with TNIK kinase enzyme system and luminescent ADP-Glo ? Kinase Assay from Promega Corporation according to the manufacturer's protocol. The tested compounds were incubated with TNIK kinases. Reactions were performed in 10 μl kinase buffer supplemented with reaction mixture containing 2 μl ATP, 2 μl MBP protein and 2 μl TNIK at 37° C. for 30 min. After kinase reaction, 5 μl reaction mixtures were transferred to 384 well assay plate (Greiner, solid white low-binding plates). Next, 5 μl of ADP-Glo Reagent was added to each well and incubated at 37° C. for 30 min. After 45 min, 10 μl Kinase Detection Reagent was added to each well and luminescence signal was detected with the SpectraMax M5e Microplate Reader (Molecular Devices, Menlo Park, Calif.) after 30 min at 37° C. incubation. The IC50 values were calculated using GraphPad Prism software (GraphPad Software Inc., La Jolla, Calif., USA) to determine kit performance. To the cut-off assay, the inhibitory activity of the compounds against TNIK kinase was expressed as the percentage of the kinase inhibitory activity for an indicated concentration of inhibitor. The IC s of the compounds against TNIK kinase values were calculated a log-concentration-response curve fitted with a four-parameter logistic equation and expressed dose-response curve for % of inhibitory activity versus log of the compound concentration.

SMILES strings stand for the structures.

T1 sequence (Q9UKE5 whole entry): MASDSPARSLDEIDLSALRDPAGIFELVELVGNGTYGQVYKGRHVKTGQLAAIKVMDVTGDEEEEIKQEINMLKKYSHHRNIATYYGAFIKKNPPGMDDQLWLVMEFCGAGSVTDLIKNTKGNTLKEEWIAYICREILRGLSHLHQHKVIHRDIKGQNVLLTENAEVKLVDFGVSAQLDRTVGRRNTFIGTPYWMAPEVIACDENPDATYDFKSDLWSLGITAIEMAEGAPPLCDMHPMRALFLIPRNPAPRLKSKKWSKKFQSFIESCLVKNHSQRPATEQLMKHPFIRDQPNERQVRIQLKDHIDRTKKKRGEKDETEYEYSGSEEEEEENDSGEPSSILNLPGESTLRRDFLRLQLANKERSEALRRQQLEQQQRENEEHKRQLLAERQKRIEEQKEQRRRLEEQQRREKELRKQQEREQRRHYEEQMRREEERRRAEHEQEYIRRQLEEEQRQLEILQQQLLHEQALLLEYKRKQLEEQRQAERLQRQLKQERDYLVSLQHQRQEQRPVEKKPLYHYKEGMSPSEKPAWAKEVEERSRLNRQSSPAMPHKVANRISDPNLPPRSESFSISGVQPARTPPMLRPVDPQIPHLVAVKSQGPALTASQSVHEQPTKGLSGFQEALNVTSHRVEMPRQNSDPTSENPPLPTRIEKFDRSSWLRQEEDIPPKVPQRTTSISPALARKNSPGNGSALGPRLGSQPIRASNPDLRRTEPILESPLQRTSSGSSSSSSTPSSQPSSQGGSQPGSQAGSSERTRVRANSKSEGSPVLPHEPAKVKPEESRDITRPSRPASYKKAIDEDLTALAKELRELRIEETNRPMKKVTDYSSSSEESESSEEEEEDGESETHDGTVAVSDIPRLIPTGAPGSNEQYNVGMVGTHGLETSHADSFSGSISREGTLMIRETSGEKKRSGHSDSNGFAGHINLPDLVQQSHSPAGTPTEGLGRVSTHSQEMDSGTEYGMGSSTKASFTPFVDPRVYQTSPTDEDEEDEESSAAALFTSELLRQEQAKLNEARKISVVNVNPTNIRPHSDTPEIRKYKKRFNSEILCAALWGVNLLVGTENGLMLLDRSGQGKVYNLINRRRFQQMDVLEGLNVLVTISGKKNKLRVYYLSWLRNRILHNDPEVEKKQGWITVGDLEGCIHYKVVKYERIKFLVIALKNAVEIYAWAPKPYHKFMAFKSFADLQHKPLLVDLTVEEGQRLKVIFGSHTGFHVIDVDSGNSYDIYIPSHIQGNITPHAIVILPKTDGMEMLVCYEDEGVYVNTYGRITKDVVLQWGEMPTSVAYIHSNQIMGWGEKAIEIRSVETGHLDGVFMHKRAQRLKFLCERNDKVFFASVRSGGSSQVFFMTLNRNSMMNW

Regarding `COc1ccc(-c2cc(Nc3ccc4[nH]ccc4c3)n[nH]2)cc1` [Compound 1, N-(5-(4-methoxyphenyl)-1H-pyrazol-3-yl)-1H-indol-5-amine], the activity at 1 µM on TNIK [1] is 16%.
For the molecule `COc1ccc(-c2cc(Nc3ccc4[nH]ncc4c3)n[nH]2)cc1` [Compound 2, N-(5-(4-methoxyphenyl)-1H-pyrazol-3-yl)-1H-indazol-5-amine], the IC50 in the assay on SW620 cells was determined as 1.2 µM; in the assay with SW480 cells, 4.5 µM; against TNIK [2], 94 nM. This molecule also showed an inhibition at 1 µM at TNIK [2] of 99%. The molecule also showed an activity at 1 µM on TNIK [1] of 21%.
For `COc1ccc(-c2cc(Nc3ccc4[nH]c(=O)[nH]c4c3)n[nH]2)cc1` [Compound 3, 5-((5-(4-methoxyphenyl)-1H-pyrazol-3-yl)amino)-1,3-dihydro-2H-benzo[d]imidazol-2-one], the inhibition at 1 µM on TNIK [2] was determined as 79%. In addition, the activity at 1 µM at TNIK [1] came to 7%.
`COc1ccc(-c2cc(Nc3ccc4cn[nH]c4c3)n[nH]2)cc1` [Compound 4, N-(5-(4-methoxyphenyl)-1H-pyrazol-3-yl)-1H-indazol-6-amine] had an activity at 1 µM on TNIK [1] of 8%.
On TNIK [2], `O=C1CCc2cc(Nc3cc(-c4ccc(O)cc4)[nH]n3)ccc2N1` [Compound 6, 6-((5-(4-hydroxyphenyl)-1H-pyrazol-3-yl)amino)-3,4-dihydroquinolin-2(1H)-one] gave a half-inhibitory concentration (IC50) of 62 nM and an inhibition at 1 µM of 96%.
As for `O=C1CCc2cc(Nc3cc(-c4ccc(-n5cccn5)cc4)[nH]n3)ccc2N1` [Compound 7, 6-((5-(4-(1H-pyrazol-1-yl)phenyl)-1H-pyrazol-3-yl)amino)-3,4-dihydroquinolin-2(1H)-one], inhibition against TNIK [2] was half-maximal at 1 nM (IC50).
Turning to `O=C1Cc2cc(Nc3cc(-c4ccc(O)c(F)c4)[nH]n3)ccc2N1` [Compound 8, 5-((5-(3-fluoro-4-hydroxyphenyl)-1H-pyrazol-3-yl)amino)indolin-2-one], at TNIK [2], it took 1 nM to reach half-maximal inhibition (IC50) and at 1 µM the inhibition was 88%.
For `O=C1CCc2cc(Nc3cc(-c4ccc(-n5ccnc5)cc4)[nH]n3)ccc2N1` [Compound 9, 6-((5-(4-(1H-imidazol-1-yl)phenyl)-1H-pyrazol-3-yl)amino)-3,4-dihydroquinolin-2(1H)-one] the same measures were 1 nM and 98%.
At TNIK [2], `c1cnn(-c2ccc(-c3cc(Nc4ccc5[nH]ncc5c4)n[nH]3)cc2)c1` [Compound 10, N-(5-(4-(1H-pyrazol-1-yl)phenyl)-1H-pyrazol-3-yl)-1H-indazol-5-amine] came in with an IC50 of 55 nM and an inhibition at 1 µM of 99%.
The corresponding values for `Oc1ccc(-c2cc(Nc3ccc4[nH]ncc4c3)n[nH]2)cc1` [Compound 11, 4-(3-((1H-indazol-5-yl)amino)-1H-pyrazol-5-yl)phenol] are 29 nM and 94%.
For `Oc1ccc(-c2cc(Nc3ccc4[nH]ncc4c3)n[nH]2)cc1F` [Compound 12, 4-(3-((1H-indazol-5-yl)amino)-1H-pyrazol-5-yl)-2-fluorophenol], the IC50 in the assay with SW620 cells is 13 µM. In addition, at TNIK [2], the concentration for half-maximal inhibition (IC50) was found to be 45 nM and testing at 1 µM gave an inhibition of 93%.
As for `O=C1COc2cc(Nc3cc(-c4ccc(-n5cccn5)cc4)[nH]n3)ccc2N1` [Compound 13, 7-((5-(4-(1H-pyrazol-1-yl)phenyl)-1H-pyrazol-3-yl)amino)-2H-benzo[b][1,4]oxazin-3(4H)-one], at TNIK [2], the IC50 was determined as 7 nM and the inhibition at 1 µM came to 90%.
With `O=C1COc2cc(Nc3cc(-c4ccc(O)cc4)[nH]n3)ccc2N1` [Compound 14, 7-((5-(4-hydroxyphenyl)-1H-pyrazol-3-yl)amino)-2H-benzo[b][1,4]oxazin-3(4H)-one], at TNIK [2], the inhibition at 1 µM was 97%.
Turning to `Cc1nc2cc(Nc3cc(-c4ccc(-n5cccn5)cc4)[nH]n3)ccc2[nH]1` [Compound 18, N-(5-(4-(1H-pyrazol-1-yl)phenyl)-1H-pyrazol-3-yl)-2-methyl-1H-benzo[d]imidazol-5-amine], the IC50 in the assay on SW620 cells was 3.4 µM; in the assay with SW480 cells, 21 µM; at TNIK [2] it was 96 nM. Further, testing at 1 µM against TNIK [2] gave an inhibition of 99%.

One may read the IC50 as the point on the concentration scale where inhibition reaches its midpoint. Broadly, the inhibition is the relative decrease from the control value, in per cent. Low readings indicate a weak effect, high ones a strong effect.
